Results on seven molecules are retold here after US20240024488A1, “COMPOUNDS AND USES THEREOF” (Foghorn Therapeutics Inc., priority 2020, published 2024).

The target in experiment [1] is T1, HiBit-BRM fusion protein (Homo sapiens, UniProt P51531).
T1 construct: expressed in transfected cells
The experiment in a line: HiBiT-BRM cell-based degradation assay (Nano-Glo HiBiT Lytic Detection, 24 h). The conditions noted are these: HeLa cell line expressing HiBiT-BRM; for DC50: read-out: BRM HiBit Degradation IC50. The essentials:
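Stable HiBiT-BRM HeLa line; 24 h compound exposure, top final 30 μM, 3-fold, 10 pts in duplicate. Lytic HiBiT/LgBiT luminescence readout. % degradation vs DMSO (0%) and 2 μM known BRM/BRG1 degrader (100%).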
A general note: HiBiT is a short tag that completes a luciferase, so light tracks the accessible tagged protein.

The target in experiment [2] is T2, HiBit-BRG1 fusion protein (Homo sapiens, UniProt P51532).
T2 construct: expressed in transfected cells
T2 sequence (P51532 whole entry, the tested form may be a part): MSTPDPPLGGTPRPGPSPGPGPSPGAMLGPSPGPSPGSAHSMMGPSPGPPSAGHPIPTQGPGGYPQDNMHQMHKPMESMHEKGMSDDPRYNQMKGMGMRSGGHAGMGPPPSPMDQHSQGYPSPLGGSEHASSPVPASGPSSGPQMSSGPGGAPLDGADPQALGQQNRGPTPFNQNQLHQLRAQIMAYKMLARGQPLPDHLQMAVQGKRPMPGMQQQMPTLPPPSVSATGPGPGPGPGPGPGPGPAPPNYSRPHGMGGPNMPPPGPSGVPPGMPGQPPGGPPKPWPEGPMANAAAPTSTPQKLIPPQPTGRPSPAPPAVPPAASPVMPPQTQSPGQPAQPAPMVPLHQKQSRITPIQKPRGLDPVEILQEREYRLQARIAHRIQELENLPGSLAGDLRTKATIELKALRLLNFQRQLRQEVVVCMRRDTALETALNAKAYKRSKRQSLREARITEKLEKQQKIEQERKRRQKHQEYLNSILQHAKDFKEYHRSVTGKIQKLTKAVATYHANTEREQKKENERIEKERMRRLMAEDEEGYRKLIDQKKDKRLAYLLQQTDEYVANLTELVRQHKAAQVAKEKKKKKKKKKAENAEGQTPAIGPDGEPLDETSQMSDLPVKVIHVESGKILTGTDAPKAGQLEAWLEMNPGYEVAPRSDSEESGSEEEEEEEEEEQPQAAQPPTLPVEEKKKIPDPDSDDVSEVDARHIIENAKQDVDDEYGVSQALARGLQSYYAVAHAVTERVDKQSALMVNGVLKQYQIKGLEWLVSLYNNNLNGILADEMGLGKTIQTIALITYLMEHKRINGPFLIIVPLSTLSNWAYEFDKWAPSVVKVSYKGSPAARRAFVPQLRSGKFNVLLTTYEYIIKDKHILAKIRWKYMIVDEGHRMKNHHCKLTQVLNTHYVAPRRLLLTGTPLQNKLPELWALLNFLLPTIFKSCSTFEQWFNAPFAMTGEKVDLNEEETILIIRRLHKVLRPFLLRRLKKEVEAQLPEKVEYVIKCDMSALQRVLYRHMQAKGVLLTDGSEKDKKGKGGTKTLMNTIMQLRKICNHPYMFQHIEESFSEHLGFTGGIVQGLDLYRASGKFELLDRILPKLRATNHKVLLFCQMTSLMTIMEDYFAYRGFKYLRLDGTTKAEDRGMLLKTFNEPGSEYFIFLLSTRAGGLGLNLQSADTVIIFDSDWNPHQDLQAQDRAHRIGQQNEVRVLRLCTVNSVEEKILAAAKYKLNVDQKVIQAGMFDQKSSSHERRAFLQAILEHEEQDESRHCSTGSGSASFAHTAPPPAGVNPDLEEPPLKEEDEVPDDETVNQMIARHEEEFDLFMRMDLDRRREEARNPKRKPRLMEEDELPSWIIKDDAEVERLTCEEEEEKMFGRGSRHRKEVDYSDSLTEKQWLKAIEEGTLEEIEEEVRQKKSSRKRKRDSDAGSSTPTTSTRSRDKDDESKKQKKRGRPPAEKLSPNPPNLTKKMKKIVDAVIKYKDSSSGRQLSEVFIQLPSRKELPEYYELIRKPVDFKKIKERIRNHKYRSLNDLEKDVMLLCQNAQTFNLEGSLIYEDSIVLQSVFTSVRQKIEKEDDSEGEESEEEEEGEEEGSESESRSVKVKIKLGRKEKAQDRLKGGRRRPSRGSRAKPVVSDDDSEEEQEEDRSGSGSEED
As to the kind of experiment: HiBiT-BRG1 cell-based degradation assay (Nano-Glo HiBiT Lytic Detection, 24 h). Conditions: HeLa cell line expressing HiBit-BRG1 and LgBit, read-out: BRG1 HiBit Degradation Maximum (%). The essentials:
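Percent degradation derived from lytic HiBiT signal, normalized to DMSO-treated cells and to cells given 2 μM of a known BRM/BRG1 degrader. The HeLa line stably expressed HiBit-BRG1 and LgBit; treatment lasted 24 h at 5000 cells per well.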

The structures appear in SMILES notation.

T1 sequence (P51531 whole entry, the tested form may be a part): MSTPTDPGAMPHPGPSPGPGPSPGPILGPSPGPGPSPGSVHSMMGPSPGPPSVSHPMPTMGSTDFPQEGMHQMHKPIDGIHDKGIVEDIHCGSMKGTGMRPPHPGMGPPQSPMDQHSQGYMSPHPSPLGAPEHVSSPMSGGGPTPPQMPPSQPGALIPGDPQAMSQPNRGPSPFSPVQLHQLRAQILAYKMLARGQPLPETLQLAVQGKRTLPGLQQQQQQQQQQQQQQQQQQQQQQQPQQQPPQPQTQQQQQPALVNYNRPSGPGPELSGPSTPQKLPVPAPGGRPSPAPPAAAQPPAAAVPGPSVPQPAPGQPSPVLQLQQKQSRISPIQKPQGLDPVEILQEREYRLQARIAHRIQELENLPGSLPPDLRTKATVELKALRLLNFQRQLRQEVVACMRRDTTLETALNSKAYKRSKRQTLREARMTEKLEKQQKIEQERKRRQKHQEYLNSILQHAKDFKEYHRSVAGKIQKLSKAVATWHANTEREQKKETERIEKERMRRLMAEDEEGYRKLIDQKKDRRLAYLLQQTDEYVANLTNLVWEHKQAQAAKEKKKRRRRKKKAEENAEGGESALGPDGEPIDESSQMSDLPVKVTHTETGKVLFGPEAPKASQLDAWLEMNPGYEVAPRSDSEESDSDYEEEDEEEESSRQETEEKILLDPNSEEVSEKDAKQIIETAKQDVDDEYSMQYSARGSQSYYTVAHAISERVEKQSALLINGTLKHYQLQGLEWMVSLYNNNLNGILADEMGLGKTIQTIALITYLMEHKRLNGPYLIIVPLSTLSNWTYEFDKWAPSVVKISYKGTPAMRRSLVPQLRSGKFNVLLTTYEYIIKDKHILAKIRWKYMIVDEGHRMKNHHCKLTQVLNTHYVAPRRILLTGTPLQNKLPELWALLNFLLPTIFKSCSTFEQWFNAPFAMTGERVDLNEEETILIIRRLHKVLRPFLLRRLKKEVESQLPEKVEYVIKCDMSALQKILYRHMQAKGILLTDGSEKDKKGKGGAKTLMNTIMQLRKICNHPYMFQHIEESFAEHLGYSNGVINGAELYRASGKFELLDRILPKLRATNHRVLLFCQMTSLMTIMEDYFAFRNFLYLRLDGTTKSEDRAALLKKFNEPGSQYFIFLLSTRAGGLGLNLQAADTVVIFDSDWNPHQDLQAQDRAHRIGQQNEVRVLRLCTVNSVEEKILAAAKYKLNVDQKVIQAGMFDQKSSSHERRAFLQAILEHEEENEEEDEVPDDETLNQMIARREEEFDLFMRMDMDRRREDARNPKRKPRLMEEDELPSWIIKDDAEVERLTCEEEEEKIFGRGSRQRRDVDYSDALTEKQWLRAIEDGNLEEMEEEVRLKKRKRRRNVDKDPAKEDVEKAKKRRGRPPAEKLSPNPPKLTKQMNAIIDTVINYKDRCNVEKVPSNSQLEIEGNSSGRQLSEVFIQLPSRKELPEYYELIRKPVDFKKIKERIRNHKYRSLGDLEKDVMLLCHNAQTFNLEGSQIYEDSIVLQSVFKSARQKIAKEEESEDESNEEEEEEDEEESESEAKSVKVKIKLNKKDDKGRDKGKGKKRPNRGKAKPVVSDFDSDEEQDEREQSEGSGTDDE

Turning to `Cc1ncsc1-c1ccc([C@H](C)NC(=O)[C@@H]2C[C@@H](O)CN2C(=O)[C@@H](c2cc(N3CCC(C(=O)N4CCc5[nH]c6nnc(-c7ccccc7O)cc6c5[C@@H]4C)CC3)no2)C(C)C)cc1` (racemic) [Compound 86, (2S,4R)-4-hydroxy-1-((R)-2-(3-(4-((S)-3-(2-hydroxyphenyl)-5-methyl-6,7,8,9-tetrahydro-5H-pyrido[3′,4′:4,5]pyrrolo[2,3-c]pyridazine-6-carbonyl)piperidin-1-yl)isoxazol-5-yl)-3-methylbutanoyl)-N-((S)-1-(4-(4-methylthiazol-5-yl)phenyl)ethyl)pyrrolidine-2-carboxamide], in experiment [1], the “BRM HiBit Degradation Maximum (%)” value is on record as “A (“A” indicates maximum degradation ≥ 75%)” and the DC50 was over 0.1 µM. Also, the Dmax in experiment [2] is under 50%.

For the molecule `Cc1ncsc1-c1ccc([C@H](C)NC(=O)[C@@H]2C[C@@H](O)CN2C(=O)[C@@H](c2cc(OCCCN[C@H]3CCc4[nH]c5nnc(-c6ccccc6O)cc5c4C3)no2)C(C)C)cc1` [Compound 143, (2S,4R)-4-hydroxy-1-((R)-2-(3-(3-(((S)-3-(2-hydroxyphenyl)-6,7,8,9-tetrahydro-5H-pyridazino[3,4-b]indol-6-yl)amino)propoxy)isoxazol-5-yl)-3-methylbutanoyl)-N-((S)-1-(4-(4-methylthiazol-5-yl)phenyl)ethyl)pyrrolidine-2-carboxamide], in experiment [1], the “BRM HiBit Degradation Maximum (%)” value was “A (“A” indicates maximum degradation ≥ 75%)” and the DC50 was over 0.1 µM. Moreover, in experiment [2], the Dmax is under 50%.

Turning to `O=C1CCC(N2C(=O)c3cccc(NCCCCCCCCC(=O)N4CC(c5cc6cc(-c7ccccc7O)nnc6[nH]5)C4)c3C2=O)C(=O)N1` (stereo not drawn) [Compound 33, 2-(2,6-dioxopiperidin-3-yl)-4-((9-(3-(3-(2-hydroxyphenyl)-7H-pyrrolo[2,3-c]pyridazin-6-yl)azetidin-1-yl)-9-oxononyl)amino)isoindoline-1,3-dione], the “BRM HiBit Degradation Maximum (%)” value in experiment [1] is reported as “C (“C” indicates maximum degradation < 50%)”. Moreover, in experiment [2], the Dmax was under 50%.

Take `Cc1ncsc1-c1ccc([C@H](C)NC(=O)[C@@H]2C[C@@H](O)CN2C(=O)[C@@H](c2cc(C3CCN(C(=O)c4cc5cc(-c6ccccc6O)nnc5[nH]4)CC3)no2)C(C)C)cc1` (single isomer, unassigned) [Compound 203]: in experiment [1], the “BRM HiBit Degradation Maximum (%)” value is “A (“A” indicates maximum degradation ≥ 75%)” and the DC50 was over 0.1 µM. In addition, in experiment [2], the Dmax was under 50%.

In the case of `O=C1CCC(N2C(=O)c3ccc(OCCN4CCC(C(=O)N5CC(c6cc7cc(-c8ccccc8O)nnc7[nH]6)C5)CC4)cc3C2=O)C(=O)N1` (stereo not drawn) [Compound 25, 2-(2,6-dioxopiperidin-3-yl)-5-(2-(4-(3-(3-(2-hydroxyphenyl)-7H-pyrrolo[2,3-c]pyridazin-6-yl)azetidine-1-carbonyl)piperidin-1-yl)ethoxy)isoindoline-1,3-dione], in experiment [1], the “BRM HiBit Degradation Maximum (%)” value is “C (“C” indicates maximum degradation < 50%)”. For the same molecule, the Dmax in experiment [2] is under 50%.

On to `Cc1ncsc1-c1ccc([C@H](C)NC(=O)[C@@H]2C[C@@H](O)CN2C(=O)[C@@H](c2cc(CN3CCc4[nH]c5nnc(-c6ccccc6O)cc5c4C3)no2)C(C)C)cc1` (single isomer, unassigned) [Compound 136], for which the “BRM HiBit Degradation Maximum (%)” value in experiment [1] was “C (“C” indicates maximum degradation < 50%)”. Moreover, in experiment [2], the Dmax was under 50%.

For the molecule `Cc1ncsc1-c1ccc([C@H](C)NC(=O)[C@@H]2C[C@@H](O)CN2C(=O)[C@@H](c2cc(OCC(=O)N3CC(c4cc5cc(-c6ccccc6O)nnc5[nH]4)C3)no2)C(C)C)cc1` (racemic) [Compound 305, (2S,4R)-4-hydroxy-1-((R)-2-(3-(2-(3-(3-(2-hydroxyphenyl)-7H-pyrrolo[2,3-c]pyridazin-6-yl)azetidin-1-yl)-2-oxoethoxy)isoxazol-5-yl)-3-methylbutanoyl)-N-((S)-1-(4-(4-methylthiazol-5-yl)phenyl)ethyl)pyrrolidine-2-carboxamide], in experiment [1], the “BRM HiBit Degradation Maximum (%)” value is listed as “A (“A” indicates maximum degradation ≥ 75%)” and the DC50 was over 1 µM. Further, the Dmax in experiment [2] was under 50%.
